Results taken from ChEMBL document CHEMBL1201862, “PubChem BioAssay data set” (2004).
Active and inactive are the calls of the source.

Legend:
[1] = A High Throughput Confirmatory Assay used to Identify Novel Compounds that Inhibit Mycobacterium Tuberculosis in the absence of Glycerol.; assay type: functional
[2] = HEp-2 cell cytotoxicity, dose response, cytotoxicity control for RSV inhibitor project, HTS (AID 2410); assay type: functional; settings: human respiratory syncytial virus
[3] = cells
[4] = molecular target: Cytochrome P450 2D6 (Homo sapiens, UniProt P10635); experiment: qHTS Assay for Inhibitors and Substrates of Cytochrome P450 2D6. [Related pubchem assays: 410 ]; assay type: ADME; settings: read-out: Potency
Sequence of Cytochrome P450 2D6 (P10635 whole entry): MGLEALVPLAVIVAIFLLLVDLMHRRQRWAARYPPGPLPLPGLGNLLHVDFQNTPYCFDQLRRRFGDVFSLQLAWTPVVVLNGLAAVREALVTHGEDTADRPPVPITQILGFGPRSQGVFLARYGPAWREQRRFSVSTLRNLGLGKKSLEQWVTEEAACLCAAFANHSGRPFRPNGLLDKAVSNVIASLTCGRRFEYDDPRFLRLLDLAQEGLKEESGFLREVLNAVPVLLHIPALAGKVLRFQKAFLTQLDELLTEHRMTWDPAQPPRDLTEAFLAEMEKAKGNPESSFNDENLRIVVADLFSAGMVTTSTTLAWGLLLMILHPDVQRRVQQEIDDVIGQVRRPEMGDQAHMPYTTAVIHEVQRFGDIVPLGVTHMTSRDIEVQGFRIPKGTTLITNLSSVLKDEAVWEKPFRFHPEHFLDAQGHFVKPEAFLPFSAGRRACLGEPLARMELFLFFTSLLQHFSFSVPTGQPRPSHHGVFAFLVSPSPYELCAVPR

[5] = molecular target: Acyl-homoserine lactone acylase PvdQ (Pseudomonas aeruginosa (strain LESB58), UniProt Q9I194); experiment: P. aeruginosa PvdQ acylase inhibitors, dose response, biochemical, fluorescence, plate reader and imaging, cherry-picks (AID 493231)
Sequence of Acyl-homoserine lactone acylase PvdQ (Q9I194 24-193 limits assumed): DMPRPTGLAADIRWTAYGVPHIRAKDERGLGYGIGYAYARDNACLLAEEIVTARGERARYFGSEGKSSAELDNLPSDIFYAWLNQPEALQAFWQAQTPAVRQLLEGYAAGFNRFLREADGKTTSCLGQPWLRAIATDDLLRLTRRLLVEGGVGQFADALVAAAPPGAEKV
Sequence of Acyl-homoserine lactone acylase PvdQ (Q9I194 217-762 limits assumed): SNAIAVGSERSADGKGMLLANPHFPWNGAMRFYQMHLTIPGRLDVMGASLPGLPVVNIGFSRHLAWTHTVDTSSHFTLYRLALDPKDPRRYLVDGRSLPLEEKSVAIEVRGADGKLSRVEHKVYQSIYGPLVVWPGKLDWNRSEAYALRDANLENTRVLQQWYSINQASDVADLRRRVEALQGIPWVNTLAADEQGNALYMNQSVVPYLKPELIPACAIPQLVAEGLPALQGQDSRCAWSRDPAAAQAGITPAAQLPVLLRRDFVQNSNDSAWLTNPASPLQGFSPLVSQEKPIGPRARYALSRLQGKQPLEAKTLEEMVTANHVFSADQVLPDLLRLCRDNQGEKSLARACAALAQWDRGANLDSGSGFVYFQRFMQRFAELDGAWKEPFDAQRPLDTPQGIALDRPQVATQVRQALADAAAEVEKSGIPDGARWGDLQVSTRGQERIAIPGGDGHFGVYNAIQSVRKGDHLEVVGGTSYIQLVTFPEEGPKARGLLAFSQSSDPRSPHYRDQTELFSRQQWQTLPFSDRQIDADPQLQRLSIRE

[6] = molecular target: T1, Mannose-6-phosphate isomerase (Homo sapiens, UniProt P34949); experiment: human PMI inhibitors, high substrate, primary screen, biochemical, fluorescence intensity, high mannose 6-phosphate (AID 1220)
T1 sequence (P34949 whole entry): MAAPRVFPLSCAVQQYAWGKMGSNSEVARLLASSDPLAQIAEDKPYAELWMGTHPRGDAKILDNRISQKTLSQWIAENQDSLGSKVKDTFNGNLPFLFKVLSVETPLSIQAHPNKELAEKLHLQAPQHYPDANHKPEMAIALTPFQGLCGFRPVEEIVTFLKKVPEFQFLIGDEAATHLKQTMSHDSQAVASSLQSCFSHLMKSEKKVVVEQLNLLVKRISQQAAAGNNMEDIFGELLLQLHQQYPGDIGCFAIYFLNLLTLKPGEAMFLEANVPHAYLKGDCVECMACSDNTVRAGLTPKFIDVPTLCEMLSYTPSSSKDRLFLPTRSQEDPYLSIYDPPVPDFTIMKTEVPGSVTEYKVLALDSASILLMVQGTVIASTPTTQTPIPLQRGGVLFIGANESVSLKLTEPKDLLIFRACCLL

[7] = molecular target: T1, Mannose-6-phosphate isomerase; experiment: inhibitors of human PMI, primary screen, biochemical, fluorescence intensity, coupled assay (AID 1209)
[8] = molecular target: Protein Rev (Human immunodeficiency virus type 1 group M subtype B (isolate HXB2)(HIV-1), UniProt P04618); experiment: inhibitors of Rev binding to RRE RNA, dose response, biochemical, fluorescence polarization, HIV-1 (AID 434976); design: species or system Human immunodeficiency virus 1
Sequence of Protein Rev (P04618 whole entry): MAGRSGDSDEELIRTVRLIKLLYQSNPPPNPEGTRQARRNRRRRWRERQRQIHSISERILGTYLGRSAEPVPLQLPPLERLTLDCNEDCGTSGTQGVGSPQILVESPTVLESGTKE

[9] = molecular target: Female germline-specific tumor suppressor gld-1 (Caenorhabditis elegans, UniProt Q17339); experiment: inhibitors of GLD-1 binding to TGE RNA, dose response, biochemical, fluorescence polarization, C. elegans (AID 2802);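 also: fluorescence polarization of labeled TGE RNA bound by purified gld-1 protein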
[10] = A cytotoxicity screen of small molecule inhibitors of the PhoP region in Salmonella typhi identified in the primary screen. [Related pubchem assays: 1850, 1864, 1985 ]; assay type: functional
[11] = cells; assay type: functional
[12] = molecular target: T2, Neuropeptide Y receptor type 1 (Homo sapiens, UniProt P25929); experiment: NPY-Y1 receptor antagonist potency, dose response, cell-based (AID 1277); assay type: functional
T2 sequence (P25929 whole entry): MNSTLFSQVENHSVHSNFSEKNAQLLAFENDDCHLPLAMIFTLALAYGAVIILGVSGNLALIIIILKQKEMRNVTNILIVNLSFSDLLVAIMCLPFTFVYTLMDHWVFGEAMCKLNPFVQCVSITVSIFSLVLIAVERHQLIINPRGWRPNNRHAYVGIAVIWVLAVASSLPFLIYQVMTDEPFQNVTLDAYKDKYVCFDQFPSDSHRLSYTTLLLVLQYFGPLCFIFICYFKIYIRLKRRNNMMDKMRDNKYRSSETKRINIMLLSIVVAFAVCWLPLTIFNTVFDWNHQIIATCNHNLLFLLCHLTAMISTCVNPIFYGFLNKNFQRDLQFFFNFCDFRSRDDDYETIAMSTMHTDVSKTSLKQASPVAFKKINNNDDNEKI

[13] = molecular target: T3, Neuropeptide Y receptor type 2 (Homo sapiens, UniProt P49146); experiment: NPY-Y2 antagonist potency, selectivity check, dose response, counter-screen for NPY-Y1 antagonist project, cell-based (AID 1278); assay type: functional
T3 sequence (P49146 whole entry): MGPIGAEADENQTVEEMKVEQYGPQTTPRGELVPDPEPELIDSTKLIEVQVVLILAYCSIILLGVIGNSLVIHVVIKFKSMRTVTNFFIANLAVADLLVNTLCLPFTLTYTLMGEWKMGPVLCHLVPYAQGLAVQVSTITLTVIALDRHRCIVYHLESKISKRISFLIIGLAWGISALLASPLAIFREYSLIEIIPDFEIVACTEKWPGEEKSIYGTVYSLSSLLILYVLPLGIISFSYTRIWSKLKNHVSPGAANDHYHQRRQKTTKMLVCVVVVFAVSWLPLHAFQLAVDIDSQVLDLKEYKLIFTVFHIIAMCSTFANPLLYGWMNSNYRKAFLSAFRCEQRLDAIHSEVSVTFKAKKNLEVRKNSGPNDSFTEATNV

[14] = molecular target: Genome polyprotein (dengue virus type 2, UniProt P29990); experiment: Dengue-2 NS5 methyltransferase inhibitors, primary screen, biochemical, confirmation dose response (AID 588689); assay type: functional
[15] = molecular target: Hexokinase HKDC1 (Homo sapiens, UniProt Q2TB90); experiment: HKDC1 hexokinase inhibitors, dose response, biochemical, W721R variant (AID 504729); assay type: functional
[16] = molecular target: Neurotensin receptor type 1 (Homo sapiens, UniProt P30989); assay type: functional;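 also: Image-based confirmatory dose-response assay measuring agonist activity at NTR1; NTR1-expressing U2OS osteosarcoma cells imaged for beta-arrestin GFP spot formation; agonist potency where compounds increase beta-arrestin recruitment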
[17] = molecular target: Melanocortin receptor 4 (Homo sapiens, UniProt P32245); assay type: functional, cell-based;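 also: Cell-based assay with luminescence read-out, confirmatory dose-response testing for agonist activity of biased ligands at MC4R; human U2OS cells with tagged receptor and beta-arrestin; potency of agonists that increase receptor coupling to beta-arrestin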
[18] = molecular target: T4, Cytochrome P450 2C9 (Homo sapiens, UniProt P11712)
T4 sequence (P11712 whole entry): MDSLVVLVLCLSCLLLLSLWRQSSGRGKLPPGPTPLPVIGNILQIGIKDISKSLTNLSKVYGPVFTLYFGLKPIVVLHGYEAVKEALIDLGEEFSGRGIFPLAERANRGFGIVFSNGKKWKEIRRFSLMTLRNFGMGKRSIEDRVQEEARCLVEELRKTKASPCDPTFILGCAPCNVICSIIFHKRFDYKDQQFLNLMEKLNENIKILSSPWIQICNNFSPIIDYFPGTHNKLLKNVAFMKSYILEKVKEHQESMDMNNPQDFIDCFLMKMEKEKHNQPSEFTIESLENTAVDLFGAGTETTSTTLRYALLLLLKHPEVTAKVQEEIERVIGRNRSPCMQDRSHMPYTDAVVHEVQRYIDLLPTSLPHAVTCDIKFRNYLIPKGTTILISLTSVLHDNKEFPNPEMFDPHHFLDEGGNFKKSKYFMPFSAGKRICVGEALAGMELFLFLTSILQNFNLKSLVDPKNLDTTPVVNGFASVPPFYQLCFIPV

[19] = molecular target: Eukaryotic translation initiation factor 4E (Mus musculus, UniProt P63073); experiment: eIF4E–eIF4G protein interaction inhibitors, dose response, biochemical, TR-FRET (AID 855); assay type: functional;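 also: potency for disrupting eIF4E binding to eIF4GI seen as loss of FRET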
[20] = molecular target: T5, Voltage-gated N-type calcium channel alpha-1B subunit/Amyloid beta A4 precursor protein-binding family A member 1 (Homo sapiens, UniProt Q00975+Q02410); assay type: protein assay
T5 sequence (Q00975 whole entry): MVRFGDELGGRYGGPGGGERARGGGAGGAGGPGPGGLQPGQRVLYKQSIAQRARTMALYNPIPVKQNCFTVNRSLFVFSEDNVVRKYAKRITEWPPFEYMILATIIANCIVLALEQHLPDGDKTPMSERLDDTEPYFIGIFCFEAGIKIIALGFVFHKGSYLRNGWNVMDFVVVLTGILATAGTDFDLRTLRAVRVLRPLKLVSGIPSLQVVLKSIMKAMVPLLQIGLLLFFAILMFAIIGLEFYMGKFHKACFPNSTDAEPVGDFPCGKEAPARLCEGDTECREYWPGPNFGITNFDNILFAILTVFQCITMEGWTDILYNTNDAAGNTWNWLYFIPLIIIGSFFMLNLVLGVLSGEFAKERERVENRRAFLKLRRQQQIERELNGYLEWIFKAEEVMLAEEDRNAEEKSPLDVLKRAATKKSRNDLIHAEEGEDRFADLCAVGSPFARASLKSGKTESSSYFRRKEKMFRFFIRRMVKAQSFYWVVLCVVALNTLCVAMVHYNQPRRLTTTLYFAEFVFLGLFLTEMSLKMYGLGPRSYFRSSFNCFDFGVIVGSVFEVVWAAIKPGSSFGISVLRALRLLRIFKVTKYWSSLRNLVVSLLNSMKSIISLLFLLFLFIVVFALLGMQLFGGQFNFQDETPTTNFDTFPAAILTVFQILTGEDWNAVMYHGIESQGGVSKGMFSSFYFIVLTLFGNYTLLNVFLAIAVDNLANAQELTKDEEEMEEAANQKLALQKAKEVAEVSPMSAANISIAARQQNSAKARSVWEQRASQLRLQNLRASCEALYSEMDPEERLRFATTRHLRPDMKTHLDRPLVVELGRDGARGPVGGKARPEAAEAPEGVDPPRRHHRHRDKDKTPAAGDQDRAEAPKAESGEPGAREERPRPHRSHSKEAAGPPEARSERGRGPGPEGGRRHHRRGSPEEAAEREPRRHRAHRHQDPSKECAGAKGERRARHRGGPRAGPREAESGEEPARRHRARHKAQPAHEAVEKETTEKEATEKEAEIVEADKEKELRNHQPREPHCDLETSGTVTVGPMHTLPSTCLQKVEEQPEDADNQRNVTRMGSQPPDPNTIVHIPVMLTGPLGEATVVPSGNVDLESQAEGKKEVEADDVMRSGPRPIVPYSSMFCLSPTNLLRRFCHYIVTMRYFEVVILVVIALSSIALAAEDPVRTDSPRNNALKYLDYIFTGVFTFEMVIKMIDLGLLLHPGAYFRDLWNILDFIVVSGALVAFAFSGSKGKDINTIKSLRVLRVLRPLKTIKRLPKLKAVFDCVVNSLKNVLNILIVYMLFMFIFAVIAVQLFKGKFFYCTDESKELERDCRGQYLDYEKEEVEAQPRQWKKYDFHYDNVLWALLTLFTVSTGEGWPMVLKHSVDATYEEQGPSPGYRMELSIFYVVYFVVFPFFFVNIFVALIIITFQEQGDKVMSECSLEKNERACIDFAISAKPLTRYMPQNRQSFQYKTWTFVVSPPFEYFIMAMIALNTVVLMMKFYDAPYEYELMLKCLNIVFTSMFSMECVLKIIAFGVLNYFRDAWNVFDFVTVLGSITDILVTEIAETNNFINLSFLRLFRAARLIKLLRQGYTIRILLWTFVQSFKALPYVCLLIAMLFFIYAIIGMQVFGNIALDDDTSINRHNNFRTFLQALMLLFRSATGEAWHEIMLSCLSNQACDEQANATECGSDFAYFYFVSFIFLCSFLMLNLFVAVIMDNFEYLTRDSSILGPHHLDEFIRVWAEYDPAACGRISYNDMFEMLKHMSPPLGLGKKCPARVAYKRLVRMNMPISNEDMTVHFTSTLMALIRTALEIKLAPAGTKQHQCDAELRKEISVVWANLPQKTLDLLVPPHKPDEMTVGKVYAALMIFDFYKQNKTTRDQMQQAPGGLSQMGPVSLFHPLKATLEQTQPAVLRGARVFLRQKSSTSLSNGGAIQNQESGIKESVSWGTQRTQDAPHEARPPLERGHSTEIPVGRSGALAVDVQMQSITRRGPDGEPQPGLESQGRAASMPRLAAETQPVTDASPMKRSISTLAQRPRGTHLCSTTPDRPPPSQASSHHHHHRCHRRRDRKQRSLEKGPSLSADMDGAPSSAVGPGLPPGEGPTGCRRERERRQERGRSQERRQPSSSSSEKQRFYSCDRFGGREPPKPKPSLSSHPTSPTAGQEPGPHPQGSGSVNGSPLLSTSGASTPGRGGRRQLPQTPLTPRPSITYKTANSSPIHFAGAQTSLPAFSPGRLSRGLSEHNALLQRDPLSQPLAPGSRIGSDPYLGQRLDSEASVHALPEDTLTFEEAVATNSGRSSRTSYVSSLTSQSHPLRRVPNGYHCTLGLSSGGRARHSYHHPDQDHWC
T5 sequence (Q02410 whole entry): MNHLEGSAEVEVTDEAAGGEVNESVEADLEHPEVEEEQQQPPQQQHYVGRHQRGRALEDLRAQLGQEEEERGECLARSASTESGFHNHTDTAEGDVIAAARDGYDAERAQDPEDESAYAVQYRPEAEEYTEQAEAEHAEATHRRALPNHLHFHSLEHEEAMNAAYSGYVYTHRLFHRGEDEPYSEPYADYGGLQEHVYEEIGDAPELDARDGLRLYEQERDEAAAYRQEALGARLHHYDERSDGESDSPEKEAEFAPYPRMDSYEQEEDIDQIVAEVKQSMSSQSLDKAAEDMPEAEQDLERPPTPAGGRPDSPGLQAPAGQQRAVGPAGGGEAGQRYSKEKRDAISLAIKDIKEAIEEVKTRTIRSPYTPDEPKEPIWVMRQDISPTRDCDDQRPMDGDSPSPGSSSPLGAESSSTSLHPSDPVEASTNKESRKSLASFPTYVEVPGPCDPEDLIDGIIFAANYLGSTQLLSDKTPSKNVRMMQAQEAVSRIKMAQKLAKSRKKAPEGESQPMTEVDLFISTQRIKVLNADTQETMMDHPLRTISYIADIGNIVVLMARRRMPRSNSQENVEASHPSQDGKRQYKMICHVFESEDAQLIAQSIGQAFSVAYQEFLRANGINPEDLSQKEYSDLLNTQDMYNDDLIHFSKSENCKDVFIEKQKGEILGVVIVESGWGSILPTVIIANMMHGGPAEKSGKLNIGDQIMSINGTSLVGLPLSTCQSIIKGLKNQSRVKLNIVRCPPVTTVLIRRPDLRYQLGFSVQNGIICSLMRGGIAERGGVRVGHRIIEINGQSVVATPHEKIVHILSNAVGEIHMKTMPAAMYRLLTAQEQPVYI

[21] = molecular target: T5, Voltage-gated N-type calcium channel alpha-1B subunit/Amyloid beta A4 precursor protein-binding family A member 1; assay type: protein assay; remark: listed apart in the source
[22] = molecular target: Glucose-6-phosphate 1-dehydrogenase (Homo sapiens, UniProt P11413); experiment: human G6PD enzyme inhibitors, dose response, selectivity assay for P. falciparum G6PD inhibitor project, biochemical, fluorescence (AID 504792); assay type: functional
[23] = cells; assay type: functional, cell-based
[24] = cells; assay type: functional, cell-based; remark: listed apart in the source
[25] = A Cell Based Secondary Assay To Explore Cytotoxicity of Compounds that Sensitize Mycobacterium Tuberculosis to Beta-Lactam Antibiotics.; assay type: functional
[26] = tested on: HEK293; experiment: inhibitors of LMP1-driven NF-kB reporter, dose response, cell-based, HEK293, luciferase, cherry-pick (AID 588343); assay type: functional; settings: Homo sapiens
[27] = molecular target: T4, Cytochrome P450 2C9; settings: Potency

For `CC(C)(C)OC(=O)NN=C(S)NC1CCCCC1`, the IC50 [1] was > 100 µM (active).

In the case of `CCOc1ccc2nc(NC(=O)C3(C)CC3(Br)Br)sc2c1` (configuration not stated), the CC50 [2] is reported as 19.4 µM (active) and the IC50 [3] is reported as 47.8 µM (active).

With `O=C(O)[C@@H]1[C@@H]2C[C@H]3c4[nH]c5ccccc5c4CCN3C[C@@H]2CC[C@@H]1O` the AC50 [4] was 31.6 µM (inconclusive).

With `O=C(c1cccc([N+](=O)[O-])c1)N1CC2C3C=CC(C3)C2C1` (configuration not stated) the AC50 [5] was 7.93 µM (active).

With `Cc1cc(C)n(-c2nnc(N3CCN(c4ccc(F)cc4)CC3)nn2)n1` the IC50 [6] was > 50 µM (not active) and the IC50 [7] was > 50 µM (not active).

For `CCCCn1c(=O)[nH]c2nc3cc(NC(C)=O)ccc3nc2c1=O`, the IC50 [8] was 6.5 µM (active) and the IC50 [9] was 0.84 µM (active).

In the case of `COc1ccccc1C(=O)Nc1nnc(-c2ccc(F)cc2)o1`, the EC50 [10] is reported as > 50 µM (active).

For `COC(=O)c1cc(-c2ccc(OC)cc2)on1`, the IC50 [11] was 3.5 µM (active) and the AC50 [5] was 0.67 µM (active).

In the case of `CCOC(=O)c1c(CSc2ccccc2)n(C)c2ccc(O)c(CN3CCOCC3)c12`, the IC50 [12] is reported as 1.94 µM (active) and the IC50 [13] is reported as > 35 µM (not active).

In the case of `COc1ccc(N(C(=O)C2CCCCC2)S(=O)(=O)c2cccc3cccnc23)cc1`, the IC50 [12] is reported as > 35 µM (not active) and the IC50 [13] is reported as > 35 µM (not active).

In the case of `CCC(c1ccccc1)C(CC)c1cc(O)c(O)c(O)c1` (configuration not stated), the IC50 [14] is reported as 39.4 µM (active) and the IC50 [15] is reported as 18.3 µM (active).

For `C#CCOCCOCCOCCNc1nc(N2CCN(C(=O)CCCCCCCCCCNC(=O)[C@@H]([C@H](C)O)n3cc(C)nn3)CC2)nc(N2CCN(C(=O)CCCCCCCCCCNC(=O)[C@@H]([C@H](C)O)n3cc(C)nn3)CC2)n1`, the IC50 [3] was 15.1 µM (active).

In the case of `CCC(C)NC(=O)c1c(N)n(/N=C/c2cccnc2)c2nc3ccccc3nc12` (configuration not stated), the EC50 [16] is reported as > 40 µM (inactive) and the EC50 [17] is reported as > 89.2 µM (inactive).

With `CC1=NN(c2ccccc2)C(=O)/C1=C\c1c(C)[nH]n(-c2ccccc2)c1=O` the AC50 [18] was 2.51 µM (inconclusive) and the IC50 [1] was > 100 µM (active).

In the case of `COc1cc(/N=c2\ssnc2Cl)cc(OC)c1`, the IC50 [19] is reported as 22.6 µM (active), the IC50 [20] is reported as 6.42 µM (active) and the IC50 [11] is reported as 39.2 µM (active). The IC50 [21] was 0.738 µM (active), the IC50 [22] was > 80 µM (inactive) and the IC50 [7] was 19.6 µM (active).

In the case of `COc1cccc(/C=N/NC(=O)CSCC(=O)Nc2ccccc2)c1O`, the EC50 [23] is reported as 12.7 µM (active), the EC50 [24] is reported as > 350 µM (not active) and the CC50 [25] is reported as 21.3 µM (active). For the same molecule, the AC50 [26] was 25.4 µM (active).

For `O=C(N/N=C/c1cccnc1)c1cccc(Cl)c1`, the EC50 [10] was > 50 µM (active).

In the case of `Cc1ccc(OCC(=O)N/N=C/c2cn(C)c3ccccc23)cc1`, the CC50 [25] is reported as > 40 µM (active).

For `O=c1cc(-c2ccccc2)oc2c1ccc1ccccc12` [ALPHA-NAPHTHOFLAVONE], the AC50 [4] was 12.6 µM (inconclusive) and the AC50 [27] was 7.94 µM (inconclusive).
